Like-named read-outs stand apart in the source and are kept apart here.
Assays:
[1] = 25° C.; cited from earlier work
[2] = Physical property data; format: physicochemical
[3] = Extended aging / oxidation comparison on D-4340 rig at 150° C.; format: physicochemical; conditions: 150° C. for 60 Days, two fully formulated coolant inhibition packages
[4] = Toxicity LD50 data and review of MSDS
[5] = ASTM D1177 freeze point; format: physicochemical
From the text: FIG. 1 illustrates the aqueous solution freeze point characteristics of the 1,3-propanediol and GM 6043 (EG). […] This could be an indication that actual protection against hard, damaging freezing is actually better, approaching the effective protection point of the EG-based product. […] We feel that the antifreeze properties of the chemistry are acceptable. Indeed a 50% solution would provide adequate protection against freezing in most geographies. TC in FIG. 1 is an internal designation for the PDO aqueous solutions at 50, 55, and 60 volume percent PDO.

SMILES | Thermal Conductivity [1] | Specific Gravity, 20° C. ([2]; 20° C.) | Viscosity ([2]; 20° C.) | Specific Gravity, 20° C. [2] | Viscosity [2] | Degradation in terms of pH value and formation of oxidation by-products [3] | Toxicity [4] | State at the reported freeze point [5]
CC(O)CO (stereo not shown) [PG, propylene glycol] | 0.119 BTU/hr-ft-F | 1.032 | 49 cP |  |  |  |  | 
OCCO [EG, ethylene glycol] |  |  |  | 1.115 | 17 cP |  |  | 
OCCCO [PDO, 1,3-propanediol] |  | 1.0526 | 52 cP |  |  | PDO degraded less | PDO offers low | soft and slushy

— US6818146B2, “Chemical base for engine coolant/antifreeze with improved thermal stability properties” (Shell Oil Company, priority 2001, dated 2004)
